The results in this text go back to US8715155B2, “Embryo development and survival” (University of Tennessee Research Foundation, priority 2005, dated 2014).

Series [1] concerns bovine cumulus-oocyte-complexes. Nature of the series: Maturation of heat-stressed cumulus-oocyte-complexes with a PGF2α antagonist. Conditions: COC matured at 41.0° C. for first 12 h, AL-8810 at 250, 400 or 1000 nM; FIG. 1. The class given is cell-based. As to the method: In a first study, bovine cumulus-oocyte-complexes were divided into three groups. Each of the three groups were matured for 24 hours under heat-stress conditions at 41.0° C. for 12 hours, followed by 38.5° C. for the remaining 12 hours. A first group, referred to as the development control group, was matured utilizing a standard maturation medium. A second group, referred to as the diluent control group, was matured under the same conditions utilizing the same standard maturation medium to which was added a diluent DMSO (dimethyl sulfoxide). A third group, referred to as the treatment group, was matured under the same conditions utilizing the same standard maturation medium to which was added the PGF2α antagonist AL-8810 at a concentration of 250, 400, or 1000 nM. To prepare the diluent control, DMSO was added to the OMM to yield the same concentration as would be contained in the PGF2α antagonist dose being tested (0.0025, 0.004 and 0.01% v/v final concentration for the 250, 400 and 1000 nM doses, respectively). The generalized linear mixed models (GLIMMIX) procedure of SAS version 9.1 (SAS Institute; Cary, N.C.; 2003) was used to perform analyses. Data are presented as least square means±the standard error of the mean. […]

In series [2] the test system is developmentally challenged bovine oocytes. Nature of the series: Maturation of developmentally challenged oocytes with a PGF2α antagonist, then fertilization. The class given is cell-based. The procedure: In a second study, bovine oocytes were obtained from ovaries of slaughtered cows. Oocytes that were developmentally challenged (development of oocyte to blastocyst less than 20%) were included in the study. The oocytes were matured for 24 hours in a standard maturation medium that either contained the PGF2α antagonist AL-8810 (treatment group) or that lacked the PGF2α antagonist (control group) and were then fertilized. Oocytes were observed on day 3 for the presence of cleavage and on day 9 for the presence of blastocyst development. The percentage of oocytes in that underwent cleavage and that developed into blastocysts was determined.

The subject of series [3] is Pre-compacted 16- to 32-cell stage bovine embryos. The following applies: 1000 nM AL-8810 + 1 ng/ml PGF, 48 h culture, assessed day 8.
Experimental: Pre-compacted 16- to 32-cell stage bovine embryos (day 4 post fertilization) are washed in KSOM-PVA and divided into four groups, each of which is cultured for 48 hours in KSOM-PVA containing one of the following: (1) 1000 nM AL-8810, n=95 (AL-8810 group); (2) 1 ng/ml PGF, n=91 (PGF group); (3) 1000 nM AL-8810+1 ng/ml PGF, n=90 (AL-8810+PGF group); or (4) KSOM-PVA without AL-8810 or PGF, n=84 (Control group).
Following the 48 hour culture, embryos from each group are placed in HEPES-TALP and embryonic development is assessed by a technician who is uninformed of the treatments of the embryos in each group. Embryos from each treatment group are washed in KSOM-PVA and transferred to a 4-well plate with KSOM-PVA for further culture until day 8 post fertilization, when embryonic development is again assessed.
Series [4] concerns embryos placed in recipient animals. Put plainly: Pre-treatment of embryos in recovery and/or freezing/transfer media before embryo transfer. The class given is in vivo, cattle. As to the method: Approximately 100 embryo recoveries are performed on day 7 after estrus in beef and dairy cows (lactating and dry). Cows are superovulated (Folltropin) and embryos recovered, evaluated, and frozen (1.5 M Ethylene Glycol; EG) as previously reported (Schrick et al., Biol. Reprod. 49:617-621 (1993)). Half of the embryo recoveries occur utilizing 1 L of each of the following alternative media preparations: 1) Embryo recovery (flush) media (CON, n=50 recoveries; Dulbecco's PBS+1% FCS; GibcoBRL, Cat.#21300-025; Grand Island, N.Y.) or 2) Embryo recovery (flush) media+AL-8810 (TRT, n=50 recoveries; 430 nM of AL-8810).
Following filtering, embryo dishes are searched, embryos removed (placed in Vigro), and evaluated for quality and development (IETS guidelines). […]
Over a two year period, recipient animals (dairy and beef cows and heifers; n=500) have estrus synchronized utilizing GnRH/CIDR/Estrumate protocol consisting of administration of 100 ug GnRH (Cysterolin; Merial) and CIDR (intravaginal progesterone releasing device; Pfizer) insertion on day 0, CIDR removal and injection of 2 mL Estrumate (Schering-Plough Animal Health) on day 7, and estrous detection (twice daily) from days 8 through 12. […] Embryos used for ET are thawed (10 sec air thaw; 30 sec in 25° C. water bath), straw labeling (embryo ID) information recorded, and recipient ID collected. […]

Series [5] has as its system Pre-compacted 16- to 32-cell stage bovine embryos. Nature of the series: Dose response study of AL-8810 on embryo development. In kind it is cell-based. The following applies: 96 h. The procedure: Incubation conditions are 5.5% CO2, 7% O2, and 87.5% N2 at 38.5° C. The four groups are as follows: (1) KSOM-PVA+AL-8810 at 1000 nM, n=93 (High AL-8810 group); (2) KSOM-PVA+AL-8810 at 500 nM, n=95 (Medium AL-8810 group); (3) KSOM-PVA+AL-8810 at 250 nM, n=93 (Low AL-8810 group); and (4) KSOM-PVA with an equivalent volume of DMSO (dimethylsulfoxide) as used for the first three groups, n=95 (Control group).

The mark [6] stands for this setting: oocytes matured 24 h with AL-8810, of those that cleaved.

In the case of `O=C(O)CCC/C=C\CC1C(O)CC(F)C1/C=C/C(O)C1Cc2ccccc2C1` (stereo not drawn) [AL-8810, 11β-fluoro-15-epi-15-indanyl-tetranor PGF2α], in series [1], the “blastocyst development after heat stress” value was “the effect of heat stress to reduce blastocyst development was no longer observed”. In addition, in series [2] (oocytes matured 24 h with AL-8810), the “deleterious or toxic effect on oocytes or developing embryos (stage and development of blastocysts)” value is on record as “does not exert a deleterious or toxic effect”. Moreover, in series [2] (oocytes matured 24 h with AL-8810, observed day 3), the “Cleaved (%)” value is recorded as 60.4%. Also, the “Blastocyst/PZ (%)” value in series [2] (oocytes matured 24 h with AL-8810, observed day 9) is reported as 17.7%. Besides, in series [2] (setting [6]), the “2-cell (%)” value was 7.2%, the “4-cell (%)” value is given as 15.2% and the “8 to 16-cell (%)” value is on record as 76.7%. Further, the “embryonic development in the presence of PGF” value in series [3] was “decreases the negative effects of PGF on embryonic development”. Moreover, in series [4] (AL-8810 (430 nM in flush media) in embryo recovery and/or freezing/transfer media), the pregnancy rates entry is “increases pregnancy rates”. Further, the “abnormalities in calves resulting from the pregnancies” value in series [4] (embryos pre-treated with AL-8810 in media) is “No abnormalities are observed in the calves”. Moreover, in series [5] (AL-8810 at 250, 500 and 1000 nM, vs control group), the “early embryonic development of pre-compacted embryos” value is recorded as “does not decrease or increase early embryonic development”. For the same compound, the embryonic development in series [5] (High AL-8810 group (1000 nM), vs 49.9+/-3.9% control, p<0.05) is 60.3%+/−3.9.
